Measurements as given in ChEMBL document CHEMBL5465560, “Selectivity Literature for EUbOPEN Chemogenomic Library” (2024).

Tests used:
[1] = target: Phosphatidylinositol 4,5-bisphosphate 3-kinase catalytic subunit alpha isoform (Homo sapiens) (UniProt P42336); assay: Selectivity interaction (Kinase panel (literature)) EUB0001199aCl PIK3CA; settings: at 1 µM
[2] = target: T1, Cyclin-dependent kinase 11A (Homo sapiens) (UniProt Q9UQ88); assay: Selectivity interaction (KinomeScan (DiscoverX)) EUB0000655a CDK11A; settings: at 10 µM
T1 sequence (whole entry): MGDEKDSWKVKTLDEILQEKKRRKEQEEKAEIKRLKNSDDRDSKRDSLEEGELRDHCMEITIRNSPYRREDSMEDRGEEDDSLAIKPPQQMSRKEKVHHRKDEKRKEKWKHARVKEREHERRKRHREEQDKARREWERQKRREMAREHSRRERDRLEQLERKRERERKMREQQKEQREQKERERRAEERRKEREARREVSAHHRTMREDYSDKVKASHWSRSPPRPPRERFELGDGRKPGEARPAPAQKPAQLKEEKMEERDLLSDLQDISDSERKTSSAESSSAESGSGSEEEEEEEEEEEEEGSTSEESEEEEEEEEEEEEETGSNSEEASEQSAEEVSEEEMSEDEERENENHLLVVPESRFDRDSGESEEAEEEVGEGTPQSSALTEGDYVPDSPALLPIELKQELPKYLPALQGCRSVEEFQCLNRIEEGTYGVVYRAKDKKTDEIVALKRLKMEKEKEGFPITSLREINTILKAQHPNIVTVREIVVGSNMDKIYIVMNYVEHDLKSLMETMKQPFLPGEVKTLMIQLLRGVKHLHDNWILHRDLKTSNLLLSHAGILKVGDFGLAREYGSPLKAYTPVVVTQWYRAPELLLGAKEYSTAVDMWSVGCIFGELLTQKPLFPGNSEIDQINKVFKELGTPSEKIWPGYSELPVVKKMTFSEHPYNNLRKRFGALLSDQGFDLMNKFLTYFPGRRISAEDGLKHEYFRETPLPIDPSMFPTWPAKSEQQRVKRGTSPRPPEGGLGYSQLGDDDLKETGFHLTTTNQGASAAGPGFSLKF

[3] = tested on: Epidermal growth factor receptor (Homo sapiens), P00533 [UNDEFINED MUTATION]; assay: (§1) Selectivity interaction (KinomeScan (DiscoverX)) EUB0001079a EGFR; settings: at 1 µM
Sequence of Epidermal growth factor receptor (Homo sapiens), P00533 [UNDEFINED MUTATION] (P00533 whole entry, looked up, stated change not applied): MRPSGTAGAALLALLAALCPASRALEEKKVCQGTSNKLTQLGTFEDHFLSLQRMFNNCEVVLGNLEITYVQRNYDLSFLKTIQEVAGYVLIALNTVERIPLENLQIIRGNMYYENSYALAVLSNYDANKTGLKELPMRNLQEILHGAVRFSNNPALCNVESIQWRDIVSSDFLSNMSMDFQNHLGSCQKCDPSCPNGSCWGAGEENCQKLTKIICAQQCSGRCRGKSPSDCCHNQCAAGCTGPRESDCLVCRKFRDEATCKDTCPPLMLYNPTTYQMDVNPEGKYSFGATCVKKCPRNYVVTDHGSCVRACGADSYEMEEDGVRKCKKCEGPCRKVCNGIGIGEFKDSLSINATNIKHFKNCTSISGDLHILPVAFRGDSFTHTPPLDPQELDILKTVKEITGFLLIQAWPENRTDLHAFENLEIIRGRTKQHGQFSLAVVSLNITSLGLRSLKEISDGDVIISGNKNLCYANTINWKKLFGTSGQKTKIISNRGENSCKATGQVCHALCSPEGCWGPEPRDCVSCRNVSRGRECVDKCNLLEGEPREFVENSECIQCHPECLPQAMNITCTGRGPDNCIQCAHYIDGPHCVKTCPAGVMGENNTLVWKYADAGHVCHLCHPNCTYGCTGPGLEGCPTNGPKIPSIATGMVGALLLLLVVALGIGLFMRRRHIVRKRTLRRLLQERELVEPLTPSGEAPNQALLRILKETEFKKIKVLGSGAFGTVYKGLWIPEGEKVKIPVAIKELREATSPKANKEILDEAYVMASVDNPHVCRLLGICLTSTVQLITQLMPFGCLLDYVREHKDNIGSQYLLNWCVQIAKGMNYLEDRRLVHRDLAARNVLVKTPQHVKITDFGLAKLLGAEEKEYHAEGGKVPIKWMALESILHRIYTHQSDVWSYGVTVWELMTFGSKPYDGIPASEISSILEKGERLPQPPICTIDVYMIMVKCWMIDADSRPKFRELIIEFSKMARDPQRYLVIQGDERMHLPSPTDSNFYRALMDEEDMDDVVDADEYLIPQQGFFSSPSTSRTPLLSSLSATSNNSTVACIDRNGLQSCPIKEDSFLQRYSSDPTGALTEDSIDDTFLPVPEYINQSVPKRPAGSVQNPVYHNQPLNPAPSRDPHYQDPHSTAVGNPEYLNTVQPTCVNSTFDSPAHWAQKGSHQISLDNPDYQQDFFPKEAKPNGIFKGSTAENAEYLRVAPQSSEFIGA

[4] = tested on: Epidermal growth factor receptor (Homo sapiens), P00533 [L858R]; assay: as §1; settings: at 1 µM
Sequence of Epidermal growth factor receptor (Homo sapiens), P00533 [L858R] (P00533 whole entry L858R): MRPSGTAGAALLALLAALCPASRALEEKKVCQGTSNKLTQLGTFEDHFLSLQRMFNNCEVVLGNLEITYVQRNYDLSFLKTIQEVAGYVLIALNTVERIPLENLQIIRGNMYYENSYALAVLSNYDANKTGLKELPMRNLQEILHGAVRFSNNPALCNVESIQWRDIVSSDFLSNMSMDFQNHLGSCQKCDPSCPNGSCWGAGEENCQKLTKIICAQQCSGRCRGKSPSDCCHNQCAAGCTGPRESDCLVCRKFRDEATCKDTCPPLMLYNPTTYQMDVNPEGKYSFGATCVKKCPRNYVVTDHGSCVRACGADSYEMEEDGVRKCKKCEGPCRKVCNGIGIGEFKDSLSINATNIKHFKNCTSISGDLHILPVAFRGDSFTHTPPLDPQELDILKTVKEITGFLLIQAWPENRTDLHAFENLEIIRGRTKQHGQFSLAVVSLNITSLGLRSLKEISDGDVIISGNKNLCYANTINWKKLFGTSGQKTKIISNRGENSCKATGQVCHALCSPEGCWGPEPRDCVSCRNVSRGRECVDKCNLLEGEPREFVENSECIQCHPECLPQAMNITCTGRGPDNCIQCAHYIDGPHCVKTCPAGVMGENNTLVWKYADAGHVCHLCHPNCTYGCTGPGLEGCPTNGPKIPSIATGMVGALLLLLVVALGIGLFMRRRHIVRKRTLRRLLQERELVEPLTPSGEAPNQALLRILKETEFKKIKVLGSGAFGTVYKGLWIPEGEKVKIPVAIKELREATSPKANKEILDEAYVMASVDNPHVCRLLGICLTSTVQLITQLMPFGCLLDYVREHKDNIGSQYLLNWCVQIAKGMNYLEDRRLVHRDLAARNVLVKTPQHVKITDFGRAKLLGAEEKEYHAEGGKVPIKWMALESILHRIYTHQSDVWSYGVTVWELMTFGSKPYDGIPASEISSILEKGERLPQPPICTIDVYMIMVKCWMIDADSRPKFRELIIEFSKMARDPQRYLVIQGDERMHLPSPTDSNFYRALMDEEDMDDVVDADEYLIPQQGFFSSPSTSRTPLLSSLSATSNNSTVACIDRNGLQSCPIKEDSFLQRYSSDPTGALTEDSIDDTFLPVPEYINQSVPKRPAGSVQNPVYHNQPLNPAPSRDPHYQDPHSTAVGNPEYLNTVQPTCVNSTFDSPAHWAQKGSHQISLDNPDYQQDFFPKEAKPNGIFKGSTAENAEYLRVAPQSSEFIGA

[5] = tested on: Epidermal growth factor receptor (Homo sapiens), P00533 [G719S]; assay: as §1; settings: at 1 µM
[6] = target: Epidermal growth factor receptor (Homo sapiens, UniProt P00533); assay: as §1; settings: at 1 µM
Sequence of Epidermal growth factor receptor (P00533 whole entry): as the sequence (P00533 whole entry, looked up, stated change not applied) above

[7] = tested on: Epidermal growth factor receptor (Homo sapiens), P00533 [L858R,T790M]; assay: as §1; settings: at 1 µM
[8] = tested on: Epidermal growth factor receptor (Homo sapiens), P00533 [T790M]; assay: as §1; settings: at 1 µM
Sequence of Epidermal growth factor receptor (Homo sapiens), P00533 [T790M] (P00533 whole entry T790M): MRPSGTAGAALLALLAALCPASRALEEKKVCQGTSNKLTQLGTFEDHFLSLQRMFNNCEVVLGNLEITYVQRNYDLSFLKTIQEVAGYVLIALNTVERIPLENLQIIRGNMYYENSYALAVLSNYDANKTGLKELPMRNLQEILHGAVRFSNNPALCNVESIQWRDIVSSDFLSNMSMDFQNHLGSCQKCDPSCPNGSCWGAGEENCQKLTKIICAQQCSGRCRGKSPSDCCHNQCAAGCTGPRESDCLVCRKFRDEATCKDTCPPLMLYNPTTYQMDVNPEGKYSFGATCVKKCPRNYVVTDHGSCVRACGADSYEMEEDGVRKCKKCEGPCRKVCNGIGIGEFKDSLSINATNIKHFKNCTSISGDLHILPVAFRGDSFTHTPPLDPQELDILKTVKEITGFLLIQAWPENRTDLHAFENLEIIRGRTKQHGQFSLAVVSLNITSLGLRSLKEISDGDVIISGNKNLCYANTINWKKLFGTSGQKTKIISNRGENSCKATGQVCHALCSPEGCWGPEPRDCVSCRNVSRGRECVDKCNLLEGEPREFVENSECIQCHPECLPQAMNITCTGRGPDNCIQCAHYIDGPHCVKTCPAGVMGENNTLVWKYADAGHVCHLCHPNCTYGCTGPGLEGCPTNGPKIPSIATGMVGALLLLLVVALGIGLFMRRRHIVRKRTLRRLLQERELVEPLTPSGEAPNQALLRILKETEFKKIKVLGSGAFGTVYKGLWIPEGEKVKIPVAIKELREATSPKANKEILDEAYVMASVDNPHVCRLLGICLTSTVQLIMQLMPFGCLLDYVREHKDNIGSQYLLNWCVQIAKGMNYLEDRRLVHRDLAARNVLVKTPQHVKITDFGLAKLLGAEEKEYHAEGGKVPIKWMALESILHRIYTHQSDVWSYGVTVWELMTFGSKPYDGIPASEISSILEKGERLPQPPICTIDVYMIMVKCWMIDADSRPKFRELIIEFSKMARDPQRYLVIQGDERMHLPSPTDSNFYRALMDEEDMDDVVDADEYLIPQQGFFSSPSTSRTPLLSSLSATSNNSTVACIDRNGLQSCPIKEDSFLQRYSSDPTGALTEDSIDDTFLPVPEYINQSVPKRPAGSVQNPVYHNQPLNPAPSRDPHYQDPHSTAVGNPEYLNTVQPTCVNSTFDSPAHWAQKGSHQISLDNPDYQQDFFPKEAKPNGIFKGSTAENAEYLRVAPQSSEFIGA

[9] = tested on: Epidermal growth factor receptor (Homo sapiens), P00533 [G719C]; assay: as §1; settings: at 1 µM
[10] = tested on: Epidermal growth factor receptor (Homo sapiens), P00533 [L861Q]; assay: as §1; settings: at 1 µM
SRSF protein kinase 1 = SRSF protein kinase 1 (Homo sapiens, UniProt Q96SB4); assay: Selectivity interaction (KinomeScan (DiscoverX)) EUB0000607a SRPK1; settings: at 10 µM
[11] = target: Ephrin type-A receptor 5 (Homo sapiens) (UniProt P54756); assay: Selectivity interaction (KinomeScan (DiscoverX)) EUB0001619a EPHA5; settings: at 1 µM
[12] = target: Casein kinase I isoform gamma-1 (Homo sapiens) (UniProt Q9HCP0); assay: Selectivity interaction (Upstate Kinase Profiler service (Millipore)) EUB0000056c CSNK1G1; settings: at 1 µM
[13] = target: T2, Myosin-IIIb (Homo sapiens) (UniProt Q8WXR4); assay: Selectivity interaction (KinomeScan (DiscoverX)) EUB0000229b MYO3B; settings: at 10 µM
T2 sequence (whole entry): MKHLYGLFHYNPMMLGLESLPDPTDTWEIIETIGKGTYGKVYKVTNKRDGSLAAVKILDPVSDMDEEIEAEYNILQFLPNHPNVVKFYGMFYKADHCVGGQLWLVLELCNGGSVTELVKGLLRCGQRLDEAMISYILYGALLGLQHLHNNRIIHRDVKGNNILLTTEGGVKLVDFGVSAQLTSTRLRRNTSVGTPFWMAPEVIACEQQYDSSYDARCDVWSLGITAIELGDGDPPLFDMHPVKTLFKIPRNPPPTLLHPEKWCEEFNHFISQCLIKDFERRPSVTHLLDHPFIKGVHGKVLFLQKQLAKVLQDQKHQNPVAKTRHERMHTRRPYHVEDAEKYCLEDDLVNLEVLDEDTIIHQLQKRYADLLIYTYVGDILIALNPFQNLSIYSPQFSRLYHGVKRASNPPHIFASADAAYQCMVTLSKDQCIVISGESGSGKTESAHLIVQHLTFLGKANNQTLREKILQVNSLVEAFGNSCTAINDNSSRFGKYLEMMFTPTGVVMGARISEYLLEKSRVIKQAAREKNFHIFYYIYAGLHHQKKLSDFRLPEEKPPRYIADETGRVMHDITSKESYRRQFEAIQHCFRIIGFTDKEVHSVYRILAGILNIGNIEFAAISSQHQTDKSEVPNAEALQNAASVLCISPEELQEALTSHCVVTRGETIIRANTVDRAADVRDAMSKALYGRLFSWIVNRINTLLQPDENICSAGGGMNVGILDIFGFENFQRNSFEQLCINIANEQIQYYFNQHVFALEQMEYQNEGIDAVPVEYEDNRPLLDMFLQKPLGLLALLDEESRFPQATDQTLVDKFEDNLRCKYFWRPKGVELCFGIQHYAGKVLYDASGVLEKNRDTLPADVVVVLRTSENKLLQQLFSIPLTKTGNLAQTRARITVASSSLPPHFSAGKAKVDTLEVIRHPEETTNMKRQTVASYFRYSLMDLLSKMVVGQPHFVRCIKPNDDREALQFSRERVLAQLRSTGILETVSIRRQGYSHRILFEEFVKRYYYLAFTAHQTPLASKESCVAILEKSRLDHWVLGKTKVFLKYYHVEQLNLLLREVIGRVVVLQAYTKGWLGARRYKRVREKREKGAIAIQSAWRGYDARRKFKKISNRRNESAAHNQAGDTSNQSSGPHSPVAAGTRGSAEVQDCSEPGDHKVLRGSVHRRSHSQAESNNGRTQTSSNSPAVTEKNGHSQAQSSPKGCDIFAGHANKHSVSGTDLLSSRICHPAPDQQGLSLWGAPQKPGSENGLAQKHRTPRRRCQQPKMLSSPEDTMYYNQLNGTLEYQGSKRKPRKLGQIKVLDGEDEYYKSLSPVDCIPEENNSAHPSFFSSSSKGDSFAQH

[14] = target: Myosin light chain kinase 2, skeletal/cardiac muscle (Homo sapiens) (UniProt Q9H1R3); assay: Selectivity interaction (Kinase panel (Z-LYTE Assay)) EUB0001632a MYLK2; settings: at 10 µM

## CN1Cc2nccc(-c3cn(C)nc3-c3ccc(F)cc3)c2C1=O
[1]
  % of inhibition: 1%

## CN(C)CCOc1ccc(-c2nc(-c3ccncc3)c(-c3ccc4c(c3)CC/C4=N\O)[nH]2)cc1
[2]
  % of control: 86%

## Nc1cnc(N2CCc3cc(S(=O)(=O)Nc4c(F)cc(Cl)cc4F)cc(N4CCCC4=O)c32)nc1 [TP-020n]
[3]
  % of control: 74%
[4]
  % of control: 85%
[5]
  % of control: 75%
[6]
  % of control: 82%
[7]
  % of control: 77%
[8]
  % of control: 88%
[9]
  % of control: 100%
[10]
  % of control: 100%

## CNC(=O)Nc1ccc(-c2nc(N3CC4CCC(C3)O4)c3cnn(C4CCC5(CC4)OCCO5)c3n2)cc1
SRSF protein kinase 1
  % of control: 100%

## N#Cc1cccc(-c2c[nH]c3ncnc(N4CCOCC4)c23)c1
[11]
  % of control: 99%

## Cc1ccc(-c2ccc3c(ccc4sc5c(c43)NC[C@@H](C)NC5=O)n2)cn1
[12]
  % of inhibition: 23%

## COc1cc(N(C)c2ccnc3ccc(C(F)(F)F)cc23)cc(OC)c1OC
[13]
  % binding: 100%

## Cn1cc(-n2cnc3c(NCc4nc5cc(Cl)c(Cl)cc5[nH]4)nc(N4CCOCC4)nc32)cn1
[14]
  % of control: 3.79%
